# Results: patent US20160345827A1, “TWO-PHOTON MICROSCOPY IMAGING RETINA CELL DAMAGE” (POLGENIX, INC., priority 2014, published 2016)
# “Also recorded” adds a separate entry of the source.
# Tests used:
# retinoid cycle = retinoid cycle inhibition before light exposure, LC/MS metabolic profile of retina; assay type: in vivo; details: pretreatment of Abca4^−/−Rdh8^−/− mice several hours before light exposure
# Description: At day 3 after light exposure, mouse retinas were dissected and homogenized in 0.3 mL of ice-cold acetonitrile. Samples were vortexed for 30 s followed by centrifugation for 15 min at 16,000×g. Clear supernatants were collected and used directly for LC/MS analyses. Each retinal extract was injected onto a reverse-phase C18 Phenomenex HPLC column (250×4.60 mm; 5 μm) preequilibrated with 5% acetonitrile in water. […] Total ion chromatograms were analyzed with XCMS software available online at the Scripps Center for Metabolomics.
# Fluorophores responsible for AF in the retina could be an indicator of global changes in the metabolic profile of this tissue. To evaluate and quantify these changes as well as determine whether they depend on a functional retinoid cycle, we used both genetically altered (Lrat^−/−) and pharmacologically treated (retinylamine) mice with metabolic profiles that were compared with light-exposed and dark-adapted Abca4^−/−Rdh8^−/− mice by using a LC/MS approach. […] To investigate the origin of these light-induced alterations, we first analyzed the metabolic profile of retinal samples isolated from light-exposed lecithin:retinol acyltransferase (LRAT)-deficient mice that cannot produce visual chromophore. […]
# [1] = system: RPE of Abca4^−/−Rdh8^−/− (DKO) mice; experiment: two-photon trans-pupil imaging of fluorescent granules in RPE after bright light; details: 2 mg Ret-NH2 gavage 13 to 16 h prior to 10,000 lux for 60 min; ex vivo imaging 7 and 14 days after light
# Source text: All animal procedures and experiments were approved by the Institutional Animal Care and Use Committee at Case Western Reserve University and conformed to recommendations of both the American Veterinary Medical Association Panel on Euthanasia and the Association for Research in Vision and Ophthalmology. B6(Cg)-Tyrc-2J/J mice were purchased from The Jackson Laboratory. Abca4^−/−Rdh8^−/− (DKO) and Rpe65^−/− mice were generated and genotyped as previously described. Human opsinGFP fusion, knockin hrhoG/hrhoG mice, expressing human rhodopsinGFP in photoreceptor outer segments were kindly provided by Dr. John H. Wilson (Baylor College of Medicine). […]
# After treatment with Ret-NH2 the content of fluorescent retinyl esters increases in the eye as reported previously. […] For quantification of the impact of drug treatment, the same detector settings were used for mice that were treated and not treated with Ret-NH2. […]
# The tunable, 690-1050 nm, Chameleon VisionS generated 75 fs laser pulses at 80 MHz pulse repetition frequency. […] In twophoton imaging, the excitation matters most because the emission fluorescence is generated only in the focal spot; therefore, it is critical to achieve a tightly focused excitation beam. […]
smiles,measurement,setting,value
CC1=C(/C=C/C(C)=C/C=C/C(C)=C/CN)C(C)(C)CCC1 [retinylamine],regeneration of visual chromophore in the eye,retinoid cycle,markedly reduced
same,accumulation of fluorescent granules in the RPE,[1],no deposits; also recorded: protects RPE
